≈ marks a conversion by molar mass, not a printed value. Each block holds one compound with its values, some of them ahead of it.
Assays:
Enterococcus faecalis [1] = assay: Antibacterial activity against Enterococcus faecalis; format: functional
Enterococcus faecalis [2] = assay: Potency index, ratio of chloramphenicol MIC to test compound MIC for Enterococcus faecalis; format: functional
[3] = tested on: Staphylococcus epidermidis; assay: Potency index, ratio of chloramphenicol MIC to test compound MIC for Staphylococcus epidermidis; format: functional
[4] = tested on: Staphylococcus epidermidis; assay: Antibacterial activity against Staphylococcus epidermidis; format: functional
Helicobacter pylori [5] = assay: Antibacterial activity against Helicobacter pylori; format: functional
Helicobacter pylori [6] = assay: Antibacterial activity against metronidazole-resistant Helicobacter pylori clinical isolates; format: functional
Helicobacter pylori [7] = assay: Antibacterial activity against Helicobacter pylori NCTC 11637; format: functional
Clostridioides difficile [8] = assay: Antibacterial activity against Clostridium difficile 630 assessed as zone of inhibition at 2.5 ug/disc after 24 hrs; format: functional; settings: Clostridioides difficile, 630, 24 h; read-out: IZ
Clostridioides difficile [9] = assay: Antibacterial activity against Clostridium difficile ATCC 43603 assessed as zone of inhibition at 2.5 ug/disc after 24 hrs; format: functional; settings: ATCC 43603, 24 h, read-out: IZ
Clostridioides difficile [10] = assay: Antibacterial activity against Clostridium difficile R20291 assessed as zone of inhibition at 2.5 ug/disc after 24 hrs; format: functional; settings: read-out: IZ
Klebsiella aerogenes = assay: Antibacterial activity against Enterobacter aerogenes PTCC 1221 after 18 hrs by two fold serial dilution; format: functional; settings: PTCC 1221, 18 h
Staphylococcus aureus [11] = assay: Antibacterial activity against Staphylococcus aureus ATCC 6538 after 18 hrs by two fold serial dilution; format: functional; settings: ATCC 6538, 18 h
Klebsiella pneumoniae [12] = assay: Antibacterial activity against Klebsiella pneumoniae ATCC 10031 after 18 hrs by two fold serial dilution; format: functional; settings: ATCC 10031, 18 h
Escherichia coli [13] = assay: Antibacterial activity against Escherichia coli ATCC 8739 after 18 hrs by two fold serial dilution; format: functional; settings: ATCC 8739, 18 h
Bacillus subtilis [14] = assay: Antibacterial activity against Bacillus subtilis PTCC 1023 after 18 hrs by two fold serial dilution; format: functional; settings: PTCC 1023, 18 h
Escherichia coli [15] = assay: Antibacterial activity against drug-resistant Escherichia coli after 24 hrs; format: functional
Escherichia coli [16] = assay: Antibacterial activity against Escherichia coli infected in mouse; format: functional
Pseudomonas aeruginosa [17] = assay: Antibacterial activity against Pseudomonas aeruginosa ATCC 27853 after 24 hrs; format: functional; settings: ATCC 27853, 24 h
Pseudomonas aeruginosa [18] = assay: Antibacterial activity against Pseudomonas aeruginosa after 24 hrs; format: functional
[19] = tested on: Staphylococcus epidermidis; assay: Antibacterial activity against Staphylococcus epidermidis ATCC 12228 after 18 hrs by two fold serial dilution; format: functional; settings: ATCC 12228, 18 h
Staphylococcus aureus [20] = assay: Antibacterial activity against Staphylococcus aureus ATCC 25923 after 24 hrs; format: functional; settings: ATCC 25923, 24 h
Escherichia coli [21] = assay: Antibacterial activity against Escherichia coli ATCC 25922 after 24 hrs; format: functional; settings: ATCC 25922, 24 h
Klebsiella pneumoniae [22] = assay: Antibacterial activity against Klebsiella pneumoniae after 24 hrs; format: functional
Enterococcus faecalis [23] = assay: Antibacterial activity against Enterococcus faecalis after 24 hrs; format: functional
Staphylococcus aureus [24] = assay: Antibacterial activity against methicillin-resistant Staphylococcus aureus after 24 hrs; format: functional
Staphylococcus aureus [25] = assay: Antibacterial activity against Staphylococcus aureus ATCC 29213 after 24 hrs; format: functional; settings: ATCC 29213, 24 h
Helicobacter pylori [26] = assay: Antibacterial activity against drug-sensitive Helicobacter pylori assessed as zone of inhibition at 8 ug/disc; format: functional; settings: read-out: IZ
Helicobacter pylori [27] = assay: Antibacterial activity against Helicobacter pylori clinical isolate assessed as zone of inhibition at 8 ug/disc; format: functional; settings: read-out: IZ
Bacillus subtilis [28] = assay: Antibacterial activity against Bacillus subtilis; format: functional
Escherichia coli [29] = assay: Antibacterial activity against Escherichia coli; format: functional
Pseudomonas aeruginosa [30] = assay: Antibacterial activity against Pseudomonas aeruginosa; format: functional
Proteus = assay: Antibacterial activity against Proteus; format: functional
Salmonella typhimurium = assay: Antibacterial activity against Salmonella typhimurium; format: functional, Salmonella enterica subsp. enterica serovar Typhimurium; settings: Salmonella enterica
Staphylococcus aureus [31] = assay: Antibacterial activity against Staphylococcus aureus; format: functional

Compound: Cc1ncc([N+](=O)[O-])n1CCOc1no[n+]([O-])c1S(=O)(=O)c1ccccc1
MIC90 (Helicobacter pylori [5]): 1 to 4 µg/mL (≈ 2.53 to 10.1 µM)
MIC90 (Helicobacter pylori [6]): 0.5 to 32 µg/mL (≈ 1.26 to 80.9 µM)
MIC90 (Helicobacter pylori [7]): 0.5 to 32 µg/mL (≈ 1.26 to 80.9 µM)

Compound: Cc1ncc([N+](=O)[O-])n1CCOc1no[n+]([O-])c1-c1ccccc1
MIC90 (Helicobacter pylori [5]): 1 to 4 µg/mL (≈ 3.02 to 12.1 µM)
MIC90 (Helicobacter pylori [6]): 0.5 to 32 µg/mL (≈ 1.51 to 96.6 µM)
MIC90 (Helicobacter pylori [7]): 0.5 to 32 µg/mL (≈ 1.51 to 96.6 µM)

Compound: C/C=C/c1nc(CS(=O)(=O)c2ccccc2)c([N+](=O)[O-])n1C
zone of inhibition at 2.5 µg/disc (Clostridioides difficile [8]): 13.5 to 24.5 mm
zone of inhibition at 2.5 µg/disc (Clostridioides difficile [9]): 13.5 to 24.5 mm
zone of inhibition at 2.5 µg/disc (Clostridioides difficile [10]): 13.5 to 24.5 mm

Compound: CCn1cc(C(=O)O)c(=O)c2cc(F)c(N3CCNCC3)cc21 [NORFLOXACIN]
MIC (Escherichia coli [15]): 100 µM (≈ 31.9 µg/mL)
ED50 (Escherichia coli [16]): 5.6 mg/kg
MIC (Pseudomonas aeruginosa [17]): 13 to 1600 µM (≈ 4.15 to 512 µg/mL)
MIC (Pseudomonas aeruginosa [18]): 13 to 1600 µM (≈ 4.15 to 512 µg/mL)
MIC [19]: 0.13 to 1 µg/mL (≈ 0.407 to 3.13 µM)
MIC (Staphylococcus aureus [11]): 0.13 to 1 µg/mL (≈ 0.407 to 3.13 µM)
MIC (Staphylococcus aureus [20]): 13 to 1600 µM (≈ 4.15 to 512 µg/mL)
MIC (Escherichia coli [21]): 13 to 1600 µM (≈ 4.15 to 512 µg/mL)
MIC (Klebsiella pneumoniae [22]): 13 to 1600 µM (≈ 4.15 to 512 µg/mL)
MIC (Enterococcus faecalis [23]): 13 to 1600 µM (≈ 4.15 to 512 µg/mL)
MIC (Klebsiella pneumoniae [12]): 0.13 to 1 µg/mL (≈ 0.407 to 3.13 µM)
MIC (Escherichia coli [13]): 0.13 to 1 µg/mL (≈ 0.407 to 3.13 µM)
MIC (Staphylococcus aureus [24]): 13 to 1600 µM (≈ 4.15 to 512 µg/mL)
MIC (Bacillus subtilis [14]): 0.13 to 1 µg/mL (≈ 0.407 to 3.13 µM)
MIC (Staphylococcus aureus [25]): 13 to 1600 µM (≈ 4.15 to 512 µg/mL)

Compound: Cn1c([N+](=O)[O-])cnc1-c1nnc(Cl)s1
zone of inhibition at 8 µg/disc (Helicobacter pylori [26]): 20.9 to 50 mm
zone of inhibition at 8 µg/disc (Helicobacter pylori [27]): 20.9 to 50 mm

Compound: Cc1ncc([N+](=O)[O-])n1CCOc1nonc1S(=O)(=O)c1ccccc1
MIC90 (Helicobacter pylori [5]): 1 to 4 µg/mL (≈ 2.64 to 10.5 µM)
MIC90 (Helicobacter pylori [6]): 0.5 to 32 µg/mL (≈ 1.32 to 84.4 µM)
MIC90 (Helicobacter pylori [7]): 0.5 to 32 µg/mL (≈ 1.32 to 84.4 µM)

The next lines start with results.

MIC (Enterococcus faecalis [1]): 62.5 µg/mL (≈ 174 µM)
MIC [4]: 62.5 µg/mL (≈ 174 µM)
Compound: Cc1ncc([N+](=O)[O-])n1CCN1C(=O)S/C(=C\c2ccccc2)C1=O
Ratio (Enterococcus faecalis [2]): 8
Ratio [3]: 2

MIC (Klebsiella aerogenes): > 64 µg/mL
MIC (Staphylococcus aureus [11]): 4 to 32 µg/mL (≈ 11.4 to 91.6 µM)
MIC (Klebsiella pneumoniae [12]): > 64 µg/mL
MIC (Escherichia coli [13]): > 64 µg/mL
MIC (Bacillus subtilis [14]): > 64 µg/mL
Compound: COc1ccc(-c2nnc(Sc3c([N+](=O)[O-])ncn3C)s2)cc1

MIC (Bacillus subtilis [28]): 64 to 128 µg/mL (≈ 128 to 257 µM)
MIC (Escherichia coli [29]): 64 to 128 µg/mL (≈ 128 to 257 µM)
MIC (Pseudomonas aeruginosa [30]): 64 to 128 µg/mL (≈ 128 to 257 µM)
MIC (Proteus): 64 to 128 µg/mL (≈ 128 to 257 µM)
MIC (Salmonella typhimurium): 64 to 128 µg/mL (≈ 128 to 257 µM)
MIC (Staphylococcus aureus [31]): 64 to 128 µg/mL (≈ 128 to 257 µM)
Compound: Cc1ncc([N+](=O)[O-])n1CCCNS(=O)(=O)c1ccc(NCc2ccc(Cl)cc2Cl)cc1

MIC [19]: 2 to 64 µg/mL (≈ 5 to 160 µM)
MIC (Staphylococcus aureus [11]): 2 to 64 µg/mL (≈ 5 to 160 µM)
MIC (Klebsiella pneumoniae [12]): 2 to 64 µg/mL (≈ 5 to 160 µM)
MIC (Escherichia coli [13]): 2 to 64 µg/mL (≈ 5 to 160 µM)
MIC (Bacillus subtilis [14]): 2 to 64 µg/mL (≈ 5 to 160 µM)
Compound: Cn1cnc([N+](=O)[O-])c1S(=O)(=O)c1nnc(-c2ncc([N+](=O)[O-])n2C)s1

MIC (Bacillus subtilis [28]): 16 to 64 µg/mL (≈ 29.6 to 118 µM)
MIC (Escherichia coli [29]): 16 to 64 µg/mL (≈ 29.6 to 118 µM)
MIC (Pseudomonas aeruginosa [30]): 16 to 64 µg/mL (≈ 29.6 to 118 µM)
MIC (Proteus): 16 to 64 µg/mL (≈ 29.6 to 118 µM)
MIC (Salmonella typhimurium): 16 to 64 µg/mL (≈ 29.6 to 118 µM)
MIC (Staphylococcus aureus [31]): 16 to 64 µg/mL (≈ 29.6 to 118 µM)
Compound: CC(=O)N(Cc1ccc(Cl)cc1Cl)c1ccc(S(=O)(=O)NCCCn2c([N+](=O)[O-])cnc2C)cc1

MIC [19]: 2 to 64 µg/mL (≈ 5.18 to 166 µM)
MIC (Staphylococcus aureus [11]): 2 to 64 µg/mL (≈ 5.18 to 166 µM)
MIC (Klebsiella pneumoniae [12]): 2 to 64 µg/mL (≈ 5.18 to 166 µM)
MIC (Escherichia coli [13]): 2 to 64 µg/mL (≈ 5.18 to 166 µM)
MIC (Bacillus subtilis [14]): 2 to 64 µg/mL (≈ 5.18 to 166 µM)
Compound: Cn1cnc([N+](=O)[O-])c1S(=O)(=O)c1nnc(-c2ccc([N+](=O)[O-])o2)s1

MIC (Klebsiella aerogenes): > 64 µg/mL
MIC (Staphylococcus aureus [11]): 4 to 32 µg/mL (≈ 10.9 to 86.9 µM)
MIC (Klebsiella pneumoniae [12]): > 64 µg/mL
MIC (Escherichia coli [13]): > 64 µg/mL
MIC (Bacillus subtilis [14]): > 64 µg/mL
Compound: Cn1cnc([N+](=O)[O-])c1Sc1nnc(-c2ncc([N+](=O)[O-])n2C)s1

Reference: ChEMBL document CHEMBL4304773, “Nitroimidazole-containing compounds and their antibacterial and antitubercular activities” (2019)
